In article PMC4503722, “Novel Phenotypic Outcomes Identified for a Public Collection of Approved Drugs from a Publicly Accessible Panel of Assays” (PLoS ONE, 2015):

Legend:
[1] = test system: endothelial tube formation in co-cultures of ECFCs and ADSCs treated with VEGF; assay: cells; format: cell-based, human; conditions: for IC50: read-out: VEGF_ADSC\ECFC Angio CD31 TubeArea summarized IC50
DLD-1 = assay: cells; format: cell-based; conditions: basal; for Basal_Viability ATP DLD-1 IC50/EC50 / IC50: assay number 23; for IC50: read-out: Basal_Viability ATP DLD-1 summarized IC50
SW480 = assay: cells; format: cell-based; conditions: basal; for Basal_Viability ATP SW480 IC50/EC50 / IC50: assay number 24; for IC50: read-out: Basal_Viability ATP SW480 summarized IC50
HCT116 = assay: cells; format: cell-based; conditions: basal; for Basal_Viability ATP HCT116 IC50/EC50 / IC50: assay number 25; for IC50: read-out: Basal_Viability ATP HCT116 summarized IC50
[2] = test system: HCT116 cells treated with a GSK3β inhibitor; assay: cells; format: cell-based; conditions: for GSK3b inh pretreated_Viability ATP HCT116 IC50/EC50 / IC50: assay number 26, GSK3b inhibitor pretreated; for IC50/EC50, GSK3b inh pretreated_Viability ATP HCT116 (assay number 26): GSK3b inh pretreated; for IC50: read-out: GSK3b inh pretreated_Viability ATP HCT116 summarized IC50
Colo320 = assay: cells; format: cell-based; conditions: basal; for Basal_Viability ATP Colo 320 IC50/EC50 / IC50: assay number 27; for IC50: read-out: Basal_Viability ATP Colo 320 summarized IC50
HT-29 = assay: cells; format: cell-based; conditions: basal; for Basal_Viability ATP HT-29 IC50/EC50 / IC50: assay number 28; for IC50: read-out: Basal_Viability ATP HT-29 summarized IC50
RKO = assay: cells; format: cell-based; conditions: basal; for Basal_Viability ATP RKO IC50/EC50 / IC50: assay number 29; for IC50: read-out: Basal_Viability ATP RKO summarized IC50
SNU-C1 = assay: cells; format: cell-based; conditions: basal; for Basal_Viability ATP SNU-C1 IC50/EC50 / IC50: assay number 30; for IC50: read-out: Basal_Viability ATP SNU-C1 summarized IC50
[3] = test system: ECFC/ADSC co-culture cell nuclei number; conditions: for IC50: read-out: VEGF_ADSC\ECFC Angio Hoechst NucArea summarized IC50

CN1CCN(c2cc3c(nn2)Oc2ccccc2N3C)CC1 [NCGC00160646-02]
VEGF_ADSC\ECFC Angio CD31 TubeArea IC50/EC50 [1]: > 10 µM | Basal_Viability ATP DLD-1 IC50/EC50 (DLD-1): > 20 µM | Basal_Viability ATP SW480 IC50/EC50 (SW480): > 20 µM | Basal_Viability ATP HCT116 IC50/EC50 (HCT116): > 20 µM | GSK3b inh pretreated_Viability ATP HCT116 IC50/EC50 [2]: > 20 µM | Basal_Viability ATP Colo 320 IC50/EC50 (Colo320): > 20 µM | Basal_Viability ATP HT-29 IC50/EC50 (HT-29): > 20 µM | Basal_Viability ATP RKO IC50/EC50 (RKO): > 20 µM | Basal_Viability ATP SNU-C1 IC50/EC50 (SNU-C1): > 20 µM | VEGF_ADSC\ECFC Angio Hoechst NucArea IC50/EC50 [3]: > 10 µM

O=[N+]([O-])c1cccc(S(=O)(=O)NCCNS(=O)(=O)c2cccc([N+](=O)[O-])c2)c1 [NCGC00160679-02]
VEGF_ADSC\ECFC Angio CD31 TubeArea IC50/EC50 [1]: > 10 µM | Basal_Viability ATP DLD-1 IC50/EC50 (DLD-1): > 20 µM | Basal_Viability ATP SW480 IC50/EC50 (SW480): > 20 µM | Basal_Viability ATP HCT116 IC50/EC50 (HCT116): > 20 µM | GSK3b inh pretreated_Viability ATP HCT116 IC50/EC50 [2]: > 20 µM | Basal_Viability ATP Colo 320 IC50/EC50 (Colo320): > 20 µM | Basal_Viability ATP HT-29 IC50/EC50 (HT-29): > 20 µM | Basal_Viability ATP RKO IC50/EC50 (RKO): > 20 µM | Basal_Viability ATP SNU-C1 IC50/EC50 (SNU-C1): > 20 µM | VEGF_ADSC\ECFC Angio Hoechst NucArea IC50/EC50 [3]: > 10 µM

CSc1ccc(/C=C2/C(C)=C(CC(=O)O)c3cc(F)ccc32)cc1 [NCGC00161601-02]
IC50/EC50, VEGF_ADSC\ECFC Angio CD31 TubeArea (assay number 2) [1]: > 10 µM | IC50/EC50, Basal_Viability ATP DLD-1 (assay number 23) (DLD-1): > 20 µM | IC50/EC50, Basal_Viability ATP SW480 (assay number 24) (SW480): 19.964 µM | IC50/EC50, Basal_Viability ATP HCT116 (assay number 25) (HCT116): > 20 µM | IC50/EC50, GSK3b inh pretreated_Viability ATP HCT116 (assay number 26) [2]: > 20 µM | IC50/EC50, Basal_Viability ATP Colo 320 (assay number 27) (Colo320): > 20 µM | IC50/EC50, Basal_Viability ATP HT-29 (assay number 28) (HT-29): > 20 µM | IC50/EC50, Basal_Viability ATP RKO (assay number 29) (RKO): > 20 µM | IC50/EC50, Basal_Viability ATP SNU-C1 (assay number 30) (SNU-C1): 11.9864 µM | IC50/EC50, VEGF_ADSC\ECFC Angio Hoechst NucArea (assay number 3) [3]: > 10 µM

C=CCN1CC[C@]23CCCC[C@H]2[C@H]1Cc1ccc(O)cc13 [NCGC00162247-06]
IC50/EC50, VEGF_ADSC\ECFC Angio CD31 TubeArea (assay number 2) [1]: > 10 µM | IC50/EC50, Basal_Viability ATP DLD-1 (assay number 23) (DLD-1): > 20 µM | IC50/EC50, Basal_Viability ATP SW480 (assay number 24) (SW480): > 20 µM | IC50/EC50, Basal_Viability ATP HCT116 (assay number 25) (HCT116): > 20 µM | IC50/EC50, GSK3b inh pretreated_Viability ATP HCT116 (assay number 26) [2]: > 20 µM | IC50/EC50, Basal_Viability ATP Colo 320 (assay number 27) (Colo320): > 20 µM | IC50/EC50, Basal_Viability ATP HT-29 (assay number 28) (HT-29): > 20 µM | IC50/EC50, Basal_Viability ATP RKO (assay number 29) (RKO): > 20 µM | IC50/EC50, Basal_Viability ATP SNU-C1 (assay number 30) (SNU-C1): > 20 µM | IC50/EC50, VEGF_ADSC\ECFC Angio Hoechst NucArea (assay number 3) [3]: > 10 µM

COP(=S)(OC)Oc1ccc(Sc2ccc(OP(=S)(OC)OC)cc2)cc1 [NCGC00163910-05]
IC50 [1]: > 10 µM | IC50 (DLD-1): > 20 µM | IC50 (SW480): 0.0118 µM | IC50 (HCT116): > 20 µM | IC50 [2]: > 20 µM | IC50 (Colo320): > 20 µM | IC50 (HT-29): > 20 µM | IC50 (RKO): 12.1 µM | IC50 (SNU-C1): 3.03 µM | IC50 [3]: > 10 µM

COCC(C)N(C(=O)CCl)c1c(C)csc1C (stereo not shown) [NCGC00163935-05]
VEGF_ADSC\ECFC Angio CD31 TubeArea IC50/EC50 [1]: > 10 µM | Basal_Viability ATP DLD-1 IC50/EC50 (DLD-1): > 20 µM | Basal_Viability ATP SW480 IC50/EC50 (SW480): > 20 µM | Basal_Viability ATP HCT116 IC50/EC50 (HCT116): > 20 µM | GSK3b inh pretreated_Viability ATP HCT116 IC50/EC50 [2]: > 20 µM | Basal_Viability ATP Colo 320 IC50/EC50 (Colo320): > 20 µM | Basal_Viability ATP HT-29 IC50/EC50 (HT-29): > 20 µM | Basal_Viability ATP RKO IC50/EC50 (RKO): > 20 µM | Basal_Viability ATP SNU-C1 IC50/EC50 (SNU-C1): > 20 µM | VEGF_ADSC\ECFC Angio Hoechst NucArea IC50/EC50 [3]: > 10 µM

O=C(Nc1ccc(Cl)cc1)Nc1ccc(Cl)c(Cl)c1 [NCGC00164034-05]
IC50 [1]: > 10 µM | IC50 (DLD-1): 0.323 µM | IC50 (SW480): 0.897 µM | IC50 (HCT116): 0.228 µM | IC50 [2]: 0.362 µM | IC50 (Colo320): 0.362 µM | IC50 (HT-29): 0.383 µM | IC50 (RKO): 0.288 µM | IC50 (SNU-C1): 0.335 µM | IC50 [3]: > 10 µM
